In article PMC5802278, “Molecular and cellular mechanisms of HIF prolyl hydroxylase inhibitors in clinical trials” (Chemical Science, 2017):
Read-outs that look alike come from different tables or passages of the source.

What was measured:
[1] = tested on: patients with ESRD and Hb ≤ 10.0 g/dL; design: method as in ref 37 (a number printed in a supplementary file, which may have a reference list of its own: not looked up in the article's list); conditions: cited from earlier work
[2] = tested on: NDD-CKD subjects with Hb ≤ 11.0 g/dL; design: method as in ref 34 (a number printed in a supplementary file, which may have a reference list of its own: not looked up in the article's list); conditions: 4 weeks, cited from earlier work
[3] = tested on: patients with haemodialysis CKD, Hb 9.5-12.0 g/dL; design: method as in ref 43 (a number printed in a supplementary file, which may have a reference list of its own: not looked up in the article's list); conditions: cited from earlier work
[4] = tested on: patients with haemodialysis CKD, Hb 9.5-12.0 g/dL; design: method as in ref 42 (a number printed in a supplementary file, which may have a reference list of its own: not looked up in the article's list); conditions: 5 mg daily, 4 weeks; cited from earlier work
[5] = tested on: patients with NDD CKD stage 3-5 and Hb 8.5-11.0 g/dL; design: method as in ref 42 (a number printed in a supplementary file, which may have a reference list of its own: not looked up in the article's list); conditions: highest dose (5 mg) daily, over 4 weeks; cited from earlier work
Hep3b cells = test: Hep3b cell viability / cell density after prolonged treatment; assay type: cell-based, human
Description: Cell seeding and inhibitor treatments were performed in parallel in the same manner as used for the HRE reporter assay (see above). Resazurin (Sigma, R7017) was used for detection of cell viability at a final concentration of 10μg/ml. Cells were incubated with Resazurin at 37°C
and emission wavelength of 590 nm using a FLUOstar Omega Microplate Reader (BMG
Hep3b cell viability after prolonged treatment of PHD inhibitors. Cell viability

[6] = tested on: pre-dialysis subjects already on Darbepoetin treatment; design: method as in ref 40 (a number printed in a supplementary file, which may have a reference list of its own: not looked up in the article's list); conditions: 16 weeks; cited from earlier work
[7] = tested on: patients with non-dialysis dependent (NDD) CKD (stage 3a/b, 4, or 5); design: method as in ref 33 (a number printed in a supplementary file, which may have a reference list of its own: not looked up in the article's list); conditions: starting 450 mg daily, titrated, 20 weeks; cited from earlier work
[8] = tested on: patients with anaemia secondary to CKD stage 3 or 4; design: method as in ref 32 (a number printed in a supplementary file, which may have a reference list of its own: not looked up in the article's list); conditions: 6 weeks, cited from earlier work

Cc1nc(C(=O)NCC(=O)O)c(O)c2ccc(Oc3ccccc3)cc12 [FG-4592]
subjects with Hb increase ≥ 1 g/dL (Hb response) from baseline ([1]; all Roxadustat treated subjects, 12 weeks): 96% | median time to Hb response ([1]; each cohort): 3 weeks | subjects with Hb increase ≥ 1 g/dL from baseline ([2]; 0.7 mg/kg BIW): 30% | subjects with Hb increase ≥ 1 g/dL from baseline ([2]; 0.7 mg/kg TIW): 58% | subjects with Hb increase ≥ 1 g/dL from baseline ([2]; 1.0 mg/kg BIW): 60% | subjects with Hb increase ≥ 1 g/dL from baseline ([2]; 1.0 mg/kg TIW): 40% | subjects with Hb increase ≥ 1 g/dL from baseline ([2]; 1.5 mg/kg BIW): 80% | subjects with Hb increase ≥ 1 g/dL from baseline ([2]; 1.5 mg/kg TIW): 91% | subjects with Hb increase ≥ 1 g/dL from baseline ([2]; 2.0 mg/kg BIW): 100% | subjects with Hb increase ≥ 1 g/dL from baseline ([2]; 2.0 mg/kg TIW): 100%

O=C(O)CNC(=O)C1C(=O)N(C2CCCCC2)C(=O)N(C2CCCCC2)C1=O [GSK1278863]
mean Hb increase from baseline at week 4 ([3]; 4 mg daily): -0.28 g/dL | mean Hb increase from baseline at week 4 ([3]; 6 mg daily): -0.01 g/dL | mean Hb increase from baseline at week 4 ([3]; 8 mg daily): 0.54 g/dL | mean Hb increase from baseline at week 4 ([3]; 10 mg daily): 0.97 g/dL | Hb level maintenance after switch from rhEPO [4]: maintained | Hb increase [5]: ~ 1.0 g/dL

CC(C)(C)OC(=O)c1ccc(-n2[nH]cc(-n3ccnn3)c2=O)nc1 [IOX4]
cell viability after prolonged treatment (Hep3b cells; 10 μM, 24, 48, 72 hours): significant reduction in cell viability | reduction in cell density versus the other 3 inhibitors (judged visually) (Hep3b cells; 10 μM, 72nd hour): 40–50%

O=c1c(-n2ccnn2)c[nH]n1-c1cc(N2CCOCC2)ncn1 [Molidustat]
mean change in Hb to evaluation period [6]: 0.46 g/dL

O=C(O)CNC(=O)c1ncc(-c2cccc(Cl)c2)cc1O [Vadadustat]
subjects with Hb increase ≥ 1.2 g/dL from baseline or mean Hb ≥ 11.0 g/dL during last 2 weeks of treatment [7]: 55% | subjects with Hb increase ≥ 1 g/dL from baseline ([8]; 240 mg daily): 31% | subjects with Hb increase ≥ 1 g/dL from baseline ([8]; 370 mg daily): 40% | subjects with Hb increase ≥ 1 g/dL from baseline ([8]; 500 mg daily): 65% | subjects with Hb increase ≥ 1 g/dL from baseline ([8]; 630 mg daily): 78%
